Source: article PMC6646794 (Biochimica et Biophysica Acta. Molecular Cell Research, 2019)
Read-outs that look alike come from different tables or passages of the source.

Columns and labels:
TRPM2 = conditions: cited from earlier work
TRPM2 W1355A I1368A = test: Whole cell patch-clamp, TRPM2 W1355A I1368A in HEK293 cells; format: cell-based, human
Description: (§1) HEK293 cells were kept at 37 °C and 5% CO2 in DMEM with 4.5 g/l glucose and GlutaMax-I (Gibco) supplemented with 10% (v/v) fetal bovine serum (Biochrom). Cells were split 1:10 to 1:20 twice a week.
The mutations W1355A and I1368A were inserted into the eukaryotic expression vector for TRPM2 (pIRES2-EGFP-TRPM2) by two sequential rounds of QuikChange mutagenesis using the following primer pairs: for W1355A: 5′-[…]-3′ and 5′-[…]-3′, for I1368A: 5′- […]-3′ and 5′-[…]-3′. The full open reading frame was confirmed by DNA sequencing (Eurofins MWG Operon, Ebersberg, Germany).
For patch clamp experiments wild type HEK293 cells were transfected with expression vectors for either wild type TRPM2 or TRPM2 W1355A/I1368A 24 h before the experiments. […] The intracellular solution contains 200 nM free Ca^2+ (calculated using MaxChelator, http://maxchelator.stanford.edu/CaEGTA-NIST.htm). Whole cell currents were recorded using a HEKA EPC-10 amplifier and PatchMaster software (HEKA Elektronik, Lamprecht, Germany). […]
For statistical analysis GraphPad Prism (v7.04 and v8.0.1; GraphPad Software) was used. […] After transformation all groups were normally distributed as assessed by D'Agostino & Pearson normality test. […]

wild-type TRPM2 = test: Whole cell patch-clamp, wild-type TRPM2 in HEK293 cells; format: cell-based, human; conditions: for whole cell current at 37 °C / whole cell current at room temperature: 200 nM free Ca2+, maximum current at +15 mV, median, 8–13 cells per condition; for effect of raising temperature to 37 °C on current: one-way ANOVA, Bonferroni
Description: as §1
For patch clamp experiments wild type HEK293 cells were transfected with expression vectors for either wild type TRPM2 or TRPM2 W1355A/I1368A 24 h before the experiments. To generate the transfection complex 2.5 μg of TRPM2 expression vector and 5 μl jetPEI reagent (PolyPlus Transfection, Strasbourg, France) were incubated for 30 min in a total volume of 250 μl (150 mM NaCl). Cells were detached from the culture bottle and adjusted to a density of 2.5 × 10^5 cells/ml. After addition of the transfection complex cells were seeded at low density to 35 mm cell culture dishes. Directly before the experiment the culture medium was replaced by bath solution (in mM: 140 N‑methyl‑D‑glucamine (NMDG), 5 KCl, 3.3 MgCl2, 1 CaCl2, 5 D‑glucose, 10 HEPES, adjusted to pH 7.4 with HCl). The replacement of Na^+ in the bath solution by NMDG (for which TRPM2 is impermeable) prevents cell rupture due to excessive current and the characteristic IV curve helps to distinguish activation of the nonselective cation channel from cells becoming leaky. […] The intracellular solution contains 200 nM free Ca^2+ (calculated using MaxChelator, http://maxchelator.stanford.edu/CaEGTA-NIST.htm). Whole cell currents were recorded using a HEKA EPC-10 amplifier and PatchMaster software (HEKA Elektronik, Lamprecht, Germany). To record TRPM2 activity, repetitive voltage ramps from −85 mV to +20 mV over 140 ms were applied every 5 s for 450 s. Before and in between ramps cells were clamped at −50 mV. Series resistance compensation was set to 70%. For temperature control the 35 mm dishes were placed inside an open culture dish incubator (DH-35i, Warner Instruments) connected to a single channel heater controller (TC-324C, Warner Instruments). Cells were continuously perfused at a flow rate of 0.3 ml/min with bath solution pre-warmed in a water bath.
For statistical analysis GraphPad Prism (v7.04 and v8.0.1; GraphPad Software) was used. Currents obtained from whole cell recordings tend to be positively skewed and were therefore log-transformed to achieve normality. After transformation all groups were normally distributed as assessed by D'Agostino & Pearson normality test. Data were tested by one-way ANOVA. p values from post-hoc comparisons between groups were adjusted for multiple comparison using Bonferroni correction. A significance level of α = 0.05 was adopted.

NudT9H domain = test: Thermal unfolding of NudT9H by nDSF; format: binding, human; conditions: NudT9H with ADPR versus without
Description: The intrinsic fluorescence at 330 and 350 nm after excitation at 280 nm is used to monitor the fluorescence change upon heat unfolding. […] Buffer conditions were 25 mM Tris (pH 7.4), 150 mM NaCl, 2 mM CaCl2, 10% (v/v) glycerol. The first derivative of the unfolding curves was used to determine the transition midpoint. Simultaneously, protein aggregation was followed by light scattering.

[1] = room temperature, 100 μM agonist in pipette
[2] = wild-type TRPM2, 100 μM agonist in pipette, room temperature to 37 °C

In the case of `Nc1ncnc2c1ncn2[C@H]1C[C@H](O)[C@@H](COP(=O)(O)OP(=O)(O)OC[C@H]2OC(O)[C@H](O)[C@@H]2O)O1` (some centres unmarked) [2′-deoxy-ADPR, 2′-deoxy-adenosine diphosphate (ADP)-ribose], the “TRPM2 current compared with ADPR” value (TRPM2; basal Ca2+ concentrations, ref [22]) is given as “elicits much higher TRPM2 currents than ADPR”, the “Ca2+ sensitivity of TRPM2 activation” value (TRPM2; ref [22]) is given as “less sensitive to Ca^2+” and the “current compared to ADPR” value (TRPM2 W1355A I1368A; 100 μM in pipette, room temperature and 37 °C) is given as “did not significantly differ from that with ADPR”. For the same compound, the “whole cell current at 37 °C” value (wild-type TRPM2; 100 μM agonist in pipette) was 1.4 nA, the “whole cell current at room temperature” value (wild-type TRPM2; [1]) was 4.5 nA and the “effect of raising temperature to 37 °C on current” value (“effect of raising temperature” below) (wild-type TRPM2; [2]) was “did not significantly increase”. The “current compared to ADPR” value (wild-type TRPM2; wild-type TRPM2, 100 μM in pipette, room temperature, compared with 100 μM ADPR) was “significantly higher at room temperature”.
For Adenosine diphosphate ribose [ADPR], the TRPM2 agonism (TRPM2; ref [20]) is listed as “activates the channel”, the “Ca2+ dependence of TRPM2 activation by ADPR” value (TRPM2; removal of both intra- and extracellular Ca2+, ref [15]) is listed as “completely prevents activation of the channel by ADPR” and the “effect of temperature >35 °C on evoked TRPM2 current” value (TRPM2; temperatures >35 °C, ref [17]) is listed as “significantly potentiates the current evoked by ADPR”. For the same compound, the “effect of raising temperature” value (TRPM2 W1355A I1368A; 100 μM agonist in pipette, room temperature to 37 °C, one-way ANOVA, Bonferroni) was “no significant increase”, the “stabilizing effect on NudT9H” value (NudT9H domain) was “ruling out a stabilizing effect of ADPR on NudT9H” and the “increase of current from room temperature to 37 °C” value (wild-type TRPM2; 100 μM agonist in pipette, room temperature to 37 °C, median values) was > 10 fold. The “whole cell current at 37 °C” value (wild-type TRPM2; 100 μM agonist in pipette) was 2.2 nA, the “whole cell current at room temperature” value (wild-type TRPM2; [1]) was 150 pA and the “effect of raising temperature” value (wild-type TRPM2; [2]) was “significantly increased”.
In the case of ADP-ribose-2′-phosphate [2′-P-ADPR], the TRPM2 agonism (TRPM2; ref [21]) is listed as “acts as partial agonist”.
